# Laboratory results reported in patent US4471131A, “Novel silyl esters of N-phosphonomethylglycine” (Monsanto Company, priority 1983, dated 1984).
# Experiments:
# Test in all cases: post-emergence herbicidal activity, greenhouse
# Format in all cases: in vivo
# [1] = tested on: Pennsylvania Smartweed
# How it was run: (§1)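 Plants grown two to three weeks in greenhouse soil pans were atomizer-sprayed with test chemical in spray containing about 0.4% emulsifier, at the listed rates. Injury relative to unsprayed controls observed at approximately two and four weeks after treatment.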
# [2] = tested on: Soybean; conditions: Table III
# How it was run: as §1
# [3] = tested on: Large Crabgrass; conditions: Table III
# How it was run: as §1
# [4] = tested on: Hemp Sesbania; conditions: Table III
# How it was run: as §1
# [5] = tested on: Barnyardgrass
# How it was run: as §1
# [6] = tested on: Common Lambsquarters
# How it was run: as §1
# [7] = tested on: Canada Thistle; conditions: Table II
# How it was run: as §1
# [8] = tested on: Downy Brome
# How it was run: as §1
# [9] = tested on: Johnsongrass; conditions: Table II
# How it was run: as §1
# [10] = Table II, 2 WAT, 5.6 kg/h, formulated in anhydrous tetrahydrofuran
# [11] = Table II, 2 WAT, 11.2 kg/h, formulated in anhydrous tetrahydrofuran
# [12] = Table II, 4 WAT, 5.6 kg/h, formulated in anhydrous tetrahydrofuran
# [13] = Table II, 4 WAT, 11.2 kg/h, formulated in anhydrous tetrahydrofuran
# [14] = Table III, 2 WAT, 1.1 kg/h, formulated in anhydrous tetrahydrofuran
# [15] = Table III, 2 WAT, .28 kg/h, formulated in anhydrous tetrahydrofuran
# [16] = Table III, 4 WAT, 1.1 kg/h, formulated in anhydrous tetrahydrofuran
# [17] = Table III, 4 WAT, .28 kg/h, formulated in anhydrous tetrahydrofuran
# [18] = 2 WAT, 1.1 kg/h, formulated in anhydrous tetrahydrofuran
# [19] = 2 WAT, 5.6 kg/h, formulated in anhydrous tetrahydrofuran
# [20] = 2 WAT, .28 kg/h, formulated in anhydrous tetrahydrofuran
# [21] = 4 WAT, 1.1 kg/h, formulated in anhydrous tetrahydrofuran
# [22] = 4 WAT, 5.6 kg/h, formulated in anhydrous tetrahydrofuran
# [23] = 4 WAT, .28 kg/h, formulated in anhydrous tetrahydrofuran
# [24] = Table III, 2 WAT, 5.6 kg/h, formulated in anhydrous tetrahydrofuran
# [25] = Table III, 4 WAT, 5.6 kg/h, formulated in anhydrous tetrahydrofuran
# [26] = 2 WAT, 11.2 kg/h, formulated in anhydrous tetrahydrofuran
# [27] = 4 WAT, 11.2 kg/h, formulated in anhydrous tetrahydrofuran
smiles,measurement,setting,value
"CCCCOC(=O)CNCP(=O)(O)O[Si](c1ccccc1)(c1ccccc1)C(C)(C)C [Ex. 6, Glycine, N--((([(1,1-Dimethylethyl)Diphenylsilyl]Oxy)Hydroxyphosphinyl)methyl)-Butyl Ester]",Plant Response Index (F),"[1]; Table II, 2 WAT, 5.6 kg/h",0 (0-24% inhibition)
same,Plant Response Index (F),[1]; [10],0 (0-24% inhibition)
same,Plant Response Index (F),"[1]; Table II, 2 WAT, 11.2 kg/h",2 (50-74% inhibition)
same,Plant Response Index (F),[1]; [11],0 (0-24% inhibition)
same,Plant Response Index (F),"[1]; Table II, 4 WAT, 5.6 kg/h",0 (0-24% inhibition)
same,Plant Response Index (F),[1]; [12],0 (0-24% inhibition)
same,Plant Response Index (F),"[1]; Table II, 4 WAT, 11.2 kg/h",2 (50-74% inhibition)
same,Plant Response Index (F),[1]; [13],0 (0-24% inhibition)
same,Plant Response Index (F),"[1]; Table III, 2 WAT, 1.1 kg/h",2 (50-74% inhibition)
same,Plant Response Index (F),[1]; [14],3 (75-99% inhibition)
same,Plant Response Index (F),"[1]; Table III, 2 WAT, 5.6 kg/h",3 (75-99% inhibition)
same,Plant Response Index (F),"[1]; Table III, 2 WAT, .28 kg/h",3 (75-99% inhibition)
same,Plant Response Index (F),[1]; [15],1 (25-49% inhibition)
same,Plant Response Index (F),"[1]; Table III, 4 WAT, 1.1 kg/h",3 (75-99% inhibition)
same,Plant Response Index (F),[1]; [16],4 (100% inhibition)
same,Plant Response Index (F),"[1]; Table III, 4 WAT, 5.6 kg/h",3 (75-99% inhibition)
same,Plant Response Index (F),[1]; [17],1 (25-49% inhibition)
same,Plant Response Index (L),"[2]; 2 WAT, 1.1 kg/h",1 (25-49% inhibition)
same,Plant Response Index (L),[2]; [18],1 (25-49% inhibition)
same,Plant Response Index (L),"[2]; 2 WAT, 5.6 kg/h",1 (25-49% inhibition)
same,Plant Response Index (L),[2]; [19],2 (50-74% inhibition)
same,Plant Response Index (L),"[2]; 2 WAT, .28 kg/h",0 (0-24% inhibition)
same,Plant Response Index (L),[2]; [20],1 (25-49% inhibition)
same,Plant Response Index (L),"[2]; 4 WAT, 1.1 kg/h",1 (25-49% inhibition)
same,Plant Response Index (L),[2]; [21],1 (25-49% inhibition)
same,Plant Response Index (L),"[2]; 4 WAT, 5.6 kg/h",1 (25-49% inhibition)
same,Plant Response Index (L),[2]; [22],2 (50-74% inhibition)
same,Plant Response Index (L),[2]; [23],1 (25-49% inhibition)
same,Plant Response Index (T),"[3]; 2 WAT, 1.1 kg/h",4 (100% inhibition)
same,Plant Response Index (T),[3]; [18],4 (100% inhibition)
same,Plant Response Index (T),"[3]; 2 WAT, 5.6 kg/h",4 (100% inhibition)
same,Plant Response Index (T),[3]; [19],4 (100% inhibition)
same,Plant Response Index (T),"[3]; 2 WAT, .28 kg/h",4 (100% inhibition)
same,Plant Response Index (T),[3]; [20],1 (25-49% inhibition)
same,Plant Response Index (T),"[3]; 4 WAT, 1.1 kg/h",4 (100% inhibition)
same,Plant Response Index (T),[3]; [21],4 (100% inhibition)
same,Plant Response Index (T),"[3]; 4 WAT, 5.6 kg/h",4 (100% inhibition)
same,Plant Response Index (T),[3]; [22],4 (100% inhibition)
same,Plant Response Index (T),[3]; [23],0 (0-24% inhibition)
same,Plant Response Index (R),"[4]; 2 WAT, 1.1 kg/h",1 (25-49% inhibition)
same,Plant Response Index (R),[4]; [18],1 (25-49% inhibition)
same,Plant Response Index (R),"[4]; 2 WAT, 5.6 kg/h",2 (50-74% inhibition)
same,Plant Response Index (R),[4]; [19],4 (100% inhibition)
same,Plant Response Index (R),[4]; [20],0 (0-24% inhibition)
same,Plant Response Index (R),"[4]; 4 WAT, 1.1 kg/h",1 (25-49% inhibition)
same,Plant Response Index (R),[4]; [21],0 (0-24% inhibition)
same,Plant Response Index (R),"[4]; 4 WAT, 5.6 kg/h",2 (50-74% inhibition)
same,Plant Response Index (R),[4]; [22],4 (100% inhibition)
same,Plant Response Index (R),[4]; [23],0 (0-24% inhibition)
same,Plant Response Index (K),"[5]; Table II, 2 WAT, 5.6 kg/h",1 (25-49% inhibition)
same,Plant Response Index (K),[5]; [10],1 (25-49% inhibition)
same,Plant Response Index (K),"[5]; Table II, 2 WAT, 11.2 kg/h",2 (50-74% inhibition)
same,Plant Response Index (K),[5]; [11],1 (25-49% inhibition)
same,Plant Response Index (K),"[5]; Table II, 4 WAT, 5.6 kg/h",2 (50-74% inhibition)
same,Plant Response Index (K),[5]; [12],2 (50-74% inhibition)
same,Plant Response Index (K),"[5]; Table II, 4 WAT, 11.2 kg/h",3 (75-99% inhibition)
same,Plant Response Index (K),[5]; [13],1 (25-49% inhibition)
same,Plant Response Index (K),"[5]; Table III, 2 WAT, 1.1 kg/h",2 (50-74% inhibition)
same,Plant Response Index (K),[5]; [14],2 (50-74% inhibition)
same,Plant Response Index (K),"[5]; Table III, 2 WAT, 5.6 kg/h",3 (75-99% inhibition)
same,Plant Response Index (K),[5]; [24],2 (50-74% inhibition)
same,Plant Response Index (K),"[5]; Table III, 2 WAT, .28 kg/h",2 (50-74% inhibition)
same,Plant Response Index (K),[5]; [15],0 (0-24% inhibition)
same,Plant Response Index (K),"[5]; Table III, 4 WAT, 1.1 kg/h",2 (50-74% inhibition)
same,Plant Response Index (K),[5]; [16],2 (50-74% inhibition)
same,Plant Response Index (K),"[5]; Table III, 4 WAT, 5.6 kg/h",3 (75-99% inhibition)
same,Plant Response Index (K),[5]; [25],2 (50-74% inhibition)
same,Plant Response Index (K),[5]; [17],0 (0-24% inhibition)
same,Plant Response Index (E),"[6]; Table II, 2 WAT, 5.6 kg/h",2 (50-74% inhibition)
same,Plant Response Index (E),[6]; [10],1 (25-49% inhibition)
same,Plant Response Index (E),"[6]; Table II, 2 WAT, 11.2 kg/h",3 (75-99% inhibition)
same,Plant Response Index (E),[6]; [11],3 (75-99% inhibition)
same,Plant Response Index (E),"[6]; Table II, 4 WAT, 5.6 kg/h",2 (50-74% inhibition)
same,Plant Response Index (E),[6]; [12],3 (75-99% inhibition)
same,Plant Response Index (E),"[6]; Table II, 4 WAT, 11.2 kg/h",4 (100% inhibition)
same,Plant Response Index (E),[6]; [13],4 (100% inhibition)
same,Plant Response Index (E),"[6]; Table III, 2 WAT, 1.1 kg/h",3 (75-99% inhibition)
same,Plant Response Index (E),[6]; [14],3 (75-99% inhibition)
same,Plant Response Index (E),"[6]; Table III, 2 WAT, 5.6 kg/h",3 (75-99% inhibition)
same,Plant Response Index (E),[6]; [24],3 (75-99% inhibition)
same,Plant Response Index (E),"[6]; Table III, 2 WAT, .28 kg/h",3 (75-99% inhibition)
same,Plant Response Index (E),[6]; [15],1 (25-49% inhibition)
same,Plant Response Index (E),"[6]; Table III, 4 WAT, 1.1 kg/h",3 (75-99% inhibition)
same,Plant Response Index (E),[6]; [16],4 (100% inhibition)
same,Plant Response Index (E),"[6]; Table III, 4 WAT, 5.6 kg/h",3 (75-99% inhibition)
same,Plant Response Index (E),[6]; [25],4 (100% inhibition)
same,Plant Response Index (E),[6]; [17],1 (25-49% inhibition)
same,Plant Response Index (A),"[7]; 2 WAT, 5.6 kg/h",0 (0-24% inhibition)
same,Plant Response Index (A),[7]; [19],0 (0-24% inhibition)
same,Plant Response Index (A),"[7]; 2 WAT, 11.2 kg/h",3 (75-99% inhibition)
same,Plant Response Index (A),[7]; [26],0 (0-24% inhibition)
same,Plant Response Index (A),"[7]; 4 WAT, 5.6 kg/h",1 (25-49% inhibition)
same,Plant Response Index (A),[7]; [22],0 (0-24% inhibition)
same,Plant Response Index (A),"[7]; 4 WAT, 11.2 kg/h",4 (100% inhibition)
same,Plant Response Index (A),[7]; [27],1 (25-49% inhibition)
same,Plant Response Index (J),"[8]; Table II, 2 WAT, 5.6 kg/h",0 (0-24% inhibition)
same,Plant Response Index (J),[8]; [10],0 (0-24% inhibition)
same,Plant Response Index (J),"[8]; Table II, 2 WAT, 11.2 kg/h",0 (0-24% inhibition)
same,Plant Response Index (J),[8]; [11],0 (0-24% inhibition)
same,Plant Response Index (J),"[8]; Table II, 4 WAT, 5.6 kg/h",0 (0-24% inhibition)
same,Plant Response Index (J),[8]; [12],0 (0-24% inhibition)
same,Plant Response Index (J),"[8]; Table II, 4 WAT, 11.2 kg/h",1 (25-49% inhibition)
same,Plant Response Index (J),[8]; [13],0 (0-24% inhibition)
same,Plant Response Index (J),"[8]; Table III, 2 WAT, 1.1 kg/h",1 (25-49% inhibition)
same,Plant Response Index (J),[8]; [14],1 (25-49% inhibition)
same,Plant Response Index (J),"[8]; Table III, 2 WAT, 5.6 kg/h",1 (25-49% inhibition)
same,Plant Response Index (J),[8]; [24],1 (25-49% inhibition)
same,Plant Response Index (J),"[8]; Table III, 2 WAT, .28 kg/h",1 (25-49% inhibition)
same,Plant Response Index (J),[8]; [15],0 (0-24% inhibition)
same,Plant Response Index (J),"[8]; Table III, 4 WAT, 1.1 kg/h",1 (25-49% inhibition)
same,Plant Response Index (J),[8]; [16],1 (25-49% inhibition)
same,Plant Response Index (J),"[8]; Table III, 4 WAT, 5.6 kg/h",3 (75-99% inhibition)
same,Plant Response Index (J),[8]; [25],2 (50-74% inhibition)
same,Plant Response Index (J),[8]; [17],0 (0-24% inhibition)
same,Plant Response Index (I),"[9]; 2 WAT, 5.6 kg/h",0 (0-24% inhibition)
same,Plant Response Index (I),[9]; [19],0 (0-24% inhibition)
same,Plant Response Index (I),"[9]; 2 WAT, 11.2 kg/h",1 (25-49% inhibition)
same,Plant Response Index (I),[9]; [26],0 (0-24% inhibition)
same,Plant Response Index (I),"[9]; 4 WAT, 5.6 kg/h",2 (50-74% inhibition)
same,Plant Response Index (I),[9]; [22],1 (25-49% inhibition)
same,Plant Response Index (I),"[9]; 4 WAT, 11.2 kg/h",0 (0-24% inhibition)
same,Plant Response Index (I),[9]; [27],1 (25-49% inhibition)
